Test [1] concerns Vero. As to the kind of experiment: cells. The format is functional. The note with it: Chlorocebus sabaeus.
The nature of test [2]: general cell-killing toxicity readout – plate reader, dry powder samples, cytotoxicity control for PAX8 inhibitor project, dose response (AID 743021). It counts as functional, cell-based.
In test [3] the target is T1, Alkaline phosphatase, tissue-nonspecific isozyme (Homo sapiens, UniProt P05186).
T1 sequence (P05186 whole entry): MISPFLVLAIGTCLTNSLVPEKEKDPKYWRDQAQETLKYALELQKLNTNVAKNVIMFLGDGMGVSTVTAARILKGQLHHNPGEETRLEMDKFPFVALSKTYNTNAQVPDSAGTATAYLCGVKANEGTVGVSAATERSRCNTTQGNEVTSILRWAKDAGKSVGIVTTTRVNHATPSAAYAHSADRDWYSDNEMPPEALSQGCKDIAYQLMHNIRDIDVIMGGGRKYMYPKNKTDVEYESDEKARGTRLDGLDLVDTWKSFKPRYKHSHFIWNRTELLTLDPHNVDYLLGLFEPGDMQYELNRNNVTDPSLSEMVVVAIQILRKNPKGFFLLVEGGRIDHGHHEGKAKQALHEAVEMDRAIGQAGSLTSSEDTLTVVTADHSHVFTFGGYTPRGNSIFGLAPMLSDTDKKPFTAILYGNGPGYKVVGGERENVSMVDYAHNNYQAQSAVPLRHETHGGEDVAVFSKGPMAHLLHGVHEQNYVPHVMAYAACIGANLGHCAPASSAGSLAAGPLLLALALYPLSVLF
As to the kind of experiment: activation of tissue-nonspecific alkaline phosphatase – biochemical, TNAP isozyme, mouse IAP uHTS hits, selectivity assay for mouse IAP activator project, dose response (AID 488880). It counts as functional.

The target in test [4] is Large T antigen (Simian virus 40, UniProt P03070). It counts as functional, Betapolyomavirus macacae.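 Note: Confirmatory-stage PubChem screen for compounds that inhibit SV40 T antigen.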
Test [5] has as its target 5'-AMP-activated protein kinase catalytic subunit alpha-1 (Homo sapiens, UniProt Q13131). It counts as functional.
Test [6] concerns the target Glycogen synthase kinase-3 beta (Homo sapiens, UniProt P49841). The format is functional.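 Note: value comes from a broad kinome profiling panel, with GSK3B as the panel member.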
The target of test [7] is Rho-associated protein kinase 2 (Homo sapiens, UniProt O75116). It counts as functional.
Test [8] deals with Serine/threonine-protein kinase TAO1 (Homo sapiens, UniProt Q7L7X3). The format is functional.
For test [9], the target named is Protein kinase C iota type (Homo sapiens, UniProt P41743). It counts as functional.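 Note: measured within a kinome-wide kinase panel, PRKCI as panel member.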
The target in test [10] is Death-associated protein kinase 3 (Homo sapiens, UniProt O43293). The format is functional.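 Note: measured as one member of a kinome-wide profiling panel.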
For test [11], the target named is Tyrosine-protein kinase BTK (Homo sapiens, UniProt Q06187). It counts as functional.
Test [12] has as its target MAP kinase-interacting serine/threonine-protein kinase 2 (Homo sapiens, UniProt Q9HBH9). The format is functional.
Test [13] deals with Serine/threonine-protein kinase Chk2 (Homo sapiens, UniProt O96017). The format is functional.
In test [14] the target is Eukaryotic elongation factor 2 kinase (Homo sapiens, UniProt O00418). The format is functional.
The target in test [15] is Homeodomain-interacting protein kinase 2 (Homo sapiens, UniProt Q9H2X6). The format is functional.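 Note: measured within a kinome-wide kinase profiling panel, HIPK2 being one panel member.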
The target of test [16] is Mitogen-activated protein kinase 1 (Homo sapiens, UniProt P28482). It counts as functional.
For test [17], the target named is Tyrosine-protein kinase SYK (Homo sapiens, UniProt P43405). The format is functional.
In test [18] the target is Mitogen-activated protein kinase 9 (Homo sapiens, UniProt P45984). It counts as functional.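 Note: value from a kinome panel profiling assay, MAPK9 panel entry.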
Test [19] can be described thus: DRD fibroblast viability loss – cell-based, non-viral oncogenic, luminescence, dose response (AID 1934). Particulars: Homo sapiens. It counts as functional.
Test [20] relates to BJ. The experiment in a line: BJ-TERT-LT-ST fibroblast viability loss – cell-based, RAS-independent, luminescence, dose response (AID 1935).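 Note: BJ fibroblasts immortalized with TERT plus LT and ST oncogenes.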 It counts as functional. The note with it: Homo sapiens.
For test [21], the target named is T2, Heat shock factor protein 1 (Mus musculus, UniProt P38532).
T2 sequence (P38532 whole entry): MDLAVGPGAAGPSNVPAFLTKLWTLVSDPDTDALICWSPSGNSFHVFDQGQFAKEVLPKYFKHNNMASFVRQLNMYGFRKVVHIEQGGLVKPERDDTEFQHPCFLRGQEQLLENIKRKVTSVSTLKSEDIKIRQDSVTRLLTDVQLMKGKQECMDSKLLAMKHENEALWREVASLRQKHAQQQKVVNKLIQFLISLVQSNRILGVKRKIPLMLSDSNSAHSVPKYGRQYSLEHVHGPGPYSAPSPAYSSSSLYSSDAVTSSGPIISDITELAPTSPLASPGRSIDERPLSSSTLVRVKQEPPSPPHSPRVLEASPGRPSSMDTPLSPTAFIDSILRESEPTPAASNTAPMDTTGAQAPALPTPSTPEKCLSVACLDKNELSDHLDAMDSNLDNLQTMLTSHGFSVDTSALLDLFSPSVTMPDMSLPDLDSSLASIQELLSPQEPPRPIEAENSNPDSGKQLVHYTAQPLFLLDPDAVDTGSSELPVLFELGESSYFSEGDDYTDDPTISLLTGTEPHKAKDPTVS
As to the kind of experiment: decrease of HSF1-responsive luciferase luminescence – cell-based, NIH3T3, dose retest, confirmation (AID 2382).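 Note: NIH3T3 fibroblasts with HSF1-driven luciferase reporter stressed by proteasome inhibitor MG132; luminescence from HSF1-driven luciferase expression after 8 hours of MG132 stress.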 It counts as functional.

For test [22], the target named is Nonstructural protein 1 (Influenza A virus, UniProt Q194T2). The format is functional, Influenza A virus (A/California/07/2009(H1N1)).
The target in test [23] is T3, Sentrin-specific protease 8 (Homo sapiens, UniProt Q96LD8).
T3 sequence (Q96LD8 whole entry): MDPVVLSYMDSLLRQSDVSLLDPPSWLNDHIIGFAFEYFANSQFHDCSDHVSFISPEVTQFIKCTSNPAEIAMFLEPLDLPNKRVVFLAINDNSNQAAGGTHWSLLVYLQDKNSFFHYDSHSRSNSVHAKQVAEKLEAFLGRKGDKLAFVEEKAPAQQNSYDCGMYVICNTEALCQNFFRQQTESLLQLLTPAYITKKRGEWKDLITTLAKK
It counts as functional.

For test [24], the target named is T4, Caspase-3 (Homo sapiens, UniProt P42574).
T4 sequence (P42574 whole entry): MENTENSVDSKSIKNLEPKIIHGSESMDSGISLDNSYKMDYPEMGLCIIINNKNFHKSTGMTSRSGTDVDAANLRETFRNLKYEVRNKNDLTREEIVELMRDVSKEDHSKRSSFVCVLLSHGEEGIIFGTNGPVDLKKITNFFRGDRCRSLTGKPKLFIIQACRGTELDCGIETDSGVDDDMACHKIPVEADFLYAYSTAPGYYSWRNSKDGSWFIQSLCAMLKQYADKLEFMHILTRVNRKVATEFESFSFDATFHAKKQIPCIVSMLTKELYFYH
The experiment in a line: Dose-response confirmation of uHTS inhibitor hits of Sentrin-Specific Protease 8 in a Caspase-3 Fluorescence assay. The format is functional.

Test [25] has as its target T3, Sentrin-specific protease 8. It counts as functional. The source holds these as a separate data set.

The source made the active and inactive calls.

Chain of MAP kinase-interacting serine/threonine-protein kinase 2 (Q9HBH9 whole entry): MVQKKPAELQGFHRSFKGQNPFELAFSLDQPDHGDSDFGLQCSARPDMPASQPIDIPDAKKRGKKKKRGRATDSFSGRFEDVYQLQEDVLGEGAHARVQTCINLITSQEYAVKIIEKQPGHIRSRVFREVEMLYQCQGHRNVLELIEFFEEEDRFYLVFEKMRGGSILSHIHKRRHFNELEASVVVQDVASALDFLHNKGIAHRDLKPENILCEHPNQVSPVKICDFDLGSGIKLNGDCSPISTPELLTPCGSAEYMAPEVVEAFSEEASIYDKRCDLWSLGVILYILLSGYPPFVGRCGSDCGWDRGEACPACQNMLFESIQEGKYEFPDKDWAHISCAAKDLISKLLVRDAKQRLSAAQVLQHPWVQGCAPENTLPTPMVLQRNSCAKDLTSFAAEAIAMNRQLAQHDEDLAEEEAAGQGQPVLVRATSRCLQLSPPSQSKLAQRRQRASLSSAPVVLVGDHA
Chain of Tyrosine-protein kinase BTK (Q06187 whole entry): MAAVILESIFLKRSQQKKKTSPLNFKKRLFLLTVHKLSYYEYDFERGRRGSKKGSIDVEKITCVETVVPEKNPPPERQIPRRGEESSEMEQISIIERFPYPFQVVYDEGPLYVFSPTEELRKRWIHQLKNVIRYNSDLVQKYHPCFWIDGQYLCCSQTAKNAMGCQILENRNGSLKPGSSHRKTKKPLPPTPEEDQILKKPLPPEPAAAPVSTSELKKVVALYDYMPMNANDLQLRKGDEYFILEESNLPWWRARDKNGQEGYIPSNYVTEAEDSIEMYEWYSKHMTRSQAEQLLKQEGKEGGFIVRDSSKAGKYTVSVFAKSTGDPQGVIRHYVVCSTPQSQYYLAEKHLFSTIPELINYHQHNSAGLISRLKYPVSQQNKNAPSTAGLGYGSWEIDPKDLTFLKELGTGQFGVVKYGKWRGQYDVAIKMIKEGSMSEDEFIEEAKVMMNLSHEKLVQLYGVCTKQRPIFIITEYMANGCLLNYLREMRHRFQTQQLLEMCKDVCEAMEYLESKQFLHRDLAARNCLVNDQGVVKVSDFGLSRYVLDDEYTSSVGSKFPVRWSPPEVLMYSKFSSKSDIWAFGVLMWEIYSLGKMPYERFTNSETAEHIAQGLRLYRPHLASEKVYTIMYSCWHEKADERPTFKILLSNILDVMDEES
Chain of Glycogen synthase kinase-3 beta (P49841 whole entry): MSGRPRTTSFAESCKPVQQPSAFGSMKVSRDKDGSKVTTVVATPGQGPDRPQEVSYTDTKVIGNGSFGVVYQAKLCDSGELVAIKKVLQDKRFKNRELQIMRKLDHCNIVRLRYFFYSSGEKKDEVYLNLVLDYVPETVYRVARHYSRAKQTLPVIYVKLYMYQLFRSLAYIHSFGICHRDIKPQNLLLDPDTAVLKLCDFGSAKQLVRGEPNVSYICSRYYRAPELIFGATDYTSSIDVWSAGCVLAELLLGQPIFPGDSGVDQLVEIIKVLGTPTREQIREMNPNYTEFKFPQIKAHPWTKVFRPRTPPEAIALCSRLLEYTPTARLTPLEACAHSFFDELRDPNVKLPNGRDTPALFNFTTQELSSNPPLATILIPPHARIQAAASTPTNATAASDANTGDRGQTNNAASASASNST
Chain of Nonstructural protein 1 (Q194T2 whole entry): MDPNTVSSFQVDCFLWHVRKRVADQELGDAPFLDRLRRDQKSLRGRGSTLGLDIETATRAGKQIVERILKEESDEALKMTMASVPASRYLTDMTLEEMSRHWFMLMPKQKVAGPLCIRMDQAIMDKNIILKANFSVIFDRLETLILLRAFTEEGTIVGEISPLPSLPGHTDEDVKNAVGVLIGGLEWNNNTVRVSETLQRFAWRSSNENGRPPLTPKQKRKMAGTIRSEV
Chain of Homeodomain-interacting protein kinase 2 (Q9H2X6 whole entry): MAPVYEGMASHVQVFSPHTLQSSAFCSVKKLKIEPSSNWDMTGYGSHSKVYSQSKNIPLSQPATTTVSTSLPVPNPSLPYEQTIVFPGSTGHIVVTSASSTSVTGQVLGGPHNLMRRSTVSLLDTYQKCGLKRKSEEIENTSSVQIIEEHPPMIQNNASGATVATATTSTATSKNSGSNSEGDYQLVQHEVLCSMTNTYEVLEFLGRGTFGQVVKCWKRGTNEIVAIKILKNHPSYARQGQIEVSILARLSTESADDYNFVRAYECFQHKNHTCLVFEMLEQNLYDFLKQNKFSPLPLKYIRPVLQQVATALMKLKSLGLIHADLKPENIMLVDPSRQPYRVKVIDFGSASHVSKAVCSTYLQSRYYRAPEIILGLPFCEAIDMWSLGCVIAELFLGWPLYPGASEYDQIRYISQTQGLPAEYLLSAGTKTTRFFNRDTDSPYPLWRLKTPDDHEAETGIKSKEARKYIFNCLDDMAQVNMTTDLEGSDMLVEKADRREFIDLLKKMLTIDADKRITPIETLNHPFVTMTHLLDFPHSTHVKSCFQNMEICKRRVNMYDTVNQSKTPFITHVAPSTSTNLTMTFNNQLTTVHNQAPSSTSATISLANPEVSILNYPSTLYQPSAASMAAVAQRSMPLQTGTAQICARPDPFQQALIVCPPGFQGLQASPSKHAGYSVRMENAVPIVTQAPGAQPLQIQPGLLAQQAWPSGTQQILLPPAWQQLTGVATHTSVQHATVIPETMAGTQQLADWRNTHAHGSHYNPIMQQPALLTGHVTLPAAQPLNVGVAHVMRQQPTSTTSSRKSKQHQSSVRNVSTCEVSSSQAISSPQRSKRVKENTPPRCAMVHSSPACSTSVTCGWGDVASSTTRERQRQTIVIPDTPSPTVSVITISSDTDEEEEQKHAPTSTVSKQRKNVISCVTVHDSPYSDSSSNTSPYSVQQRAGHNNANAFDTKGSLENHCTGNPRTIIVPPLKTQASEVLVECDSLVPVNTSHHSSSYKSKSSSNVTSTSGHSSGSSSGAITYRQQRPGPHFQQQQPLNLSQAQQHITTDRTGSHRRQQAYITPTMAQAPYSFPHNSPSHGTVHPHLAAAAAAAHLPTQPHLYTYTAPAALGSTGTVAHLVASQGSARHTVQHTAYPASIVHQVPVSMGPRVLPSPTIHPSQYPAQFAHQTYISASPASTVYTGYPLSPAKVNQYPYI
Chain of 5'-AMP-activated protein kinase catalytic subunit alpha-1 (Q13131 whole entry): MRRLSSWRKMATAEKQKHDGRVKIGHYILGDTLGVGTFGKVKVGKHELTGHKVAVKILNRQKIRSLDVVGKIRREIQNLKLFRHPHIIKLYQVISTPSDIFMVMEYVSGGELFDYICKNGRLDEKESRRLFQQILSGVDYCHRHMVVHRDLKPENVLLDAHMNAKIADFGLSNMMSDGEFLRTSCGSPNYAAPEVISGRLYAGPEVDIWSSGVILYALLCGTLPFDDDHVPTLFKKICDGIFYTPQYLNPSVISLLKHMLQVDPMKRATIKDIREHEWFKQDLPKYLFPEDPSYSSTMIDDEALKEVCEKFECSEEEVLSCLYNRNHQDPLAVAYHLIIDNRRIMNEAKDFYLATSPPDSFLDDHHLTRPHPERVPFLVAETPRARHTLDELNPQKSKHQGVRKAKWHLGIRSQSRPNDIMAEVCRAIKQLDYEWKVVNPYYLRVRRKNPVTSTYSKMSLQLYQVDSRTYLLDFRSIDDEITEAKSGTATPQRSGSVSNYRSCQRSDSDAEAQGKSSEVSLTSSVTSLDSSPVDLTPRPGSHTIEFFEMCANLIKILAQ
Chain of Serine/threonine-protein kinase Chk2 (O96017 whole entry): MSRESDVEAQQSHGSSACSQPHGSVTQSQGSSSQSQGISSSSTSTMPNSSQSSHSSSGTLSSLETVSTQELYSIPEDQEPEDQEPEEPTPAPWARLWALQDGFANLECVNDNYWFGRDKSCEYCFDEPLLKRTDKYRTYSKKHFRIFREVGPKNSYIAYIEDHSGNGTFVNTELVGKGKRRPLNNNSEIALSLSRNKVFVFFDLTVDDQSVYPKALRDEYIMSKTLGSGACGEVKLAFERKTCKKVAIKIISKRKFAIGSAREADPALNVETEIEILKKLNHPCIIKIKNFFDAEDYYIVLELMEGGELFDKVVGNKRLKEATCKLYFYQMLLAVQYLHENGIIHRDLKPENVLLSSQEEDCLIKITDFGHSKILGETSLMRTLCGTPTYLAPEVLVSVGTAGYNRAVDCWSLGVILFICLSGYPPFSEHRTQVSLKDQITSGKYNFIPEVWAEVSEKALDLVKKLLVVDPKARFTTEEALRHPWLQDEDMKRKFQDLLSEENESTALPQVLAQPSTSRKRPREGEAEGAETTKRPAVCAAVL
Chain of Death-associated protein kinase 3 (O43293 whole entry): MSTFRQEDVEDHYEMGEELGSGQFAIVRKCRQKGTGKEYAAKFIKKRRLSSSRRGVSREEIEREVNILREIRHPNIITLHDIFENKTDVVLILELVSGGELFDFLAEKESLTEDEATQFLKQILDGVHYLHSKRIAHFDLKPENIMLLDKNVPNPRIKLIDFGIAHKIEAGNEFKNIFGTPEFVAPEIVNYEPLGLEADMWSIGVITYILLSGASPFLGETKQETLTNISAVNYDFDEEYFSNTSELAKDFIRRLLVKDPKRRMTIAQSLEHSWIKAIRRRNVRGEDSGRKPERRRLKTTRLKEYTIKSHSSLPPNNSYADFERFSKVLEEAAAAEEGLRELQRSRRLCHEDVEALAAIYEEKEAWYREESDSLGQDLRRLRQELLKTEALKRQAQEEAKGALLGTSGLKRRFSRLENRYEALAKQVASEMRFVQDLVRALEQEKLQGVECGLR
Chain of Mitogen-activated protein kinase 1 (P28482 whole entry): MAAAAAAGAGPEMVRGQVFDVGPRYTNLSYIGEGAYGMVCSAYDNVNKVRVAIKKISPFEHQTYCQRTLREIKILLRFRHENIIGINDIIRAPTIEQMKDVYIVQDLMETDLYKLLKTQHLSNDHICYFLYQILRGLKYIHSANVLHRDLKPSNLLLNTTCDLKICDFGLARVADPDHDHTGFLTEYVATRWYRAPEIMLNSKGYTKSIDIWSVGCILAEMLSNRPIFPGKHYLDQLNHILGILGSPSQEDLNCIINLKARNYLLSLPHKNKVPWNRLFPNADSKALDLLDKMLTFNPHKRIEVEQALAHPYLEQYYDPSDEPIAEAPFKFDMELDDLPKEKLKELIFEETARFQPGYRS

A word on the CC50: it is the concentration giving 50% cytotoxicity. The term AC50 denotes the midpoint of the concentration-response curve, whichever way the signal moves. With `CC(=O)N(C1=C(Cl)C(=O)c2ccccc2C1=O)C1CCCCC1`, in [1], the 50% cytotoxic concentration (CC50) was 13300 nM (active). Also, the AC50 in test [2] was 21500 nM (active).
The EC50 is the midpoint of the concentration-response curve. By IC50 is commonly meant the midpoint of a concentration-inhibition curve. For `Oc1ccc(-c2cn3c(n2)SCC3)cc1O`, in [3], the EC50 was 70900 nM (active). Also, the IC50 in test [4] was 9740 nM (active).
In general, Ki refers to the dissociation constant of the complex between target and ligand, obtained from inhibition or displacement. Regarding `O=C1Nc2ccc3ncsc3c2C1=CNc1ccc(S(=O)(=O)Nc2ccccn2)cc1`, the inhibitory constant (Ki) is 3.98 nM (active) in [5]; 3.16 nM (active) in test [6]; 50.1 nM (active) in test [7]; 1580 nM (active) in test [8]; > 5010 nM (inactive) in test [9]; 79.4 nM (active) in test [10]. In addition, the Ki in test [11] was 79.4 nM (active); in test [12], 126 nM (active); in test [13], 158 nM (active); in test [14], > 3980 nM (inactive); in test [15], 126 nM (active); in test [16], 158 nM (active). Further, the figures for the Ki in test [17] and in [18] were > 1580 nM (inactive) and 126 nM (active), respectively.
With `Cc1ccc(NC2=C/C(=N\S(=O)(=O)c3cccs3)c3ccccc3C2=O)c(C)c1`, the EC50 in test [19] was 5140 nM (active); in test [20] it was 4420 nM (inconclusive); in [21], 1560 nM (active). In [22], the IC50 was 6480 nM (active).
Take `COc1ccc(/C=N/NC(=O)c2nn(-c3ccccc3)c(=O)c3c(N)scc23)cc1`: the results for the IC50 in [23], in test [24] and in test [25] were 346 nM (active), 2150 nM (active) and 415 nM (active), respectively.

The values above are taken from ChEMBL document CHEMBL1201862, “PubChem BioAssay data set” (2004).
